{"source": "patent US20220096529A1", "about": "“2-HYDROXYPROPYL-BETA-CYCLODEXTRIN (HPBETACD) FOR USE IN THE TREATMENT OF BREAST CANCER” (UNIVERSITY OF THE WITWATERSRAND, JOHANNESBURG, priority 2019, published 2022)", "key": {"HEK-293 cells [1]": {"test_system": "HEK-293 cells", "assay": "Cell-APOPercentage apoptosis assay", "assay_type": "cell-based, human", "conditions": "24 hrs", "procedure": "(§1) APOPercentage assays gives a measure of overall apoptosis in the cell. Apoptosis is an early event and therefore just one time point (24 hrs) was selected and tested on four cell lines MCF7, MDA-MB-231, MRC-5 & HEK-293 cells. 10 μM Plumbagin was used a positive control as opposed to 40 μM from MTT because higher concentrations of plumbagin was way too toxic for the cells and to capture the early activity, optimal dosage was required. To confirm the growth inhibition obtained from the MTT assay was actually due to apoptosis, a Cell-APOPercentage Apoptosis assay was performed according to known methods."}, "MDA-MB-231 cells [2]": {"test_system": "MDA-MB-231 cells", "assay": "Cell-APOPercentage apoptosis assay", "assay_type": "cell-based, human", "conditions": "24 hrs", "procedure": "as §1"}, "MCF7 cells [3]": {"test_system": "MCF7 cells", "assay": "Cell-APOPercentage apoptosis assay", "assay_type": "cell-based, human", "conditions": "MCF7, 10 mM HPβCD, 24 hrs", "procedure": "as §1"}, "MRC-5 cells [4]": {"test_system": "MRC-5 cells", "assay": "Cell-APOPercentage apoptosis assay", "assay_type": "cell-based, human", "conditions": "24 hrs", "procedure": "as §1"}, "HEK-293 cells [5]": {"test_system": "HEK-293 cells", "assay": "Caspase 3/7 assay", "assay_type": "cell-based, human", "conditions": "HEK-293, 10 mM HPβCD, 24 hrs", "procedure": "(§2) The final step in apoptosis following the intrinsic pathway is the activation of executioner caspases like caspase 3 and caspase 7 […]. Therefore, to confirm that cell death was due to the mitochondrial mediated pathway of apoptosis a Caspase 3/7 assay was conducted. Caspases are activated in response to a myriad of cellular death stimuli and they dismantle the cell. Caspase 3 and caspase 7 contribute to the majority of proteolytic cleavage occurring in apoptosis. As a final step to confirm and validate apoptosis via the mitochondrial intrinsic pathway, the Caspase 3/7 assay was conducted on three cell lines: MCF7, MDA-MB-231 & HEK-293. HPβCD and positive (40 μM PL) were treated for 24 hrs. The percentage of dead/apoptotic cells are clearly indicated in specific corners of each quadrants in the above plots."}, "MDA-MB-231 cells [6]": {"test_system": "MDA-MB-231 cells", "assay": "Caspase 3/7 assay", "assay_type": "cell-based, human", "conditions": "MDA-MB-231, 10 mM HPβCD, 24 hrs", "procedure": "as §2"}, "MCF7 cells [7]": {"test_system": "MCF7 cells", "assay": "Caspase 3/7 assay", "assay_type": "cell-based, human", "conditions": "MCF7, 10 mM HPβCD", "procedure": "as §2"}, "MCF7 cells [8]": {"test_system": "MCF7 cells", "assay": "Mice xenograft, ER+ breast cancer", "assay_type": "in vivo, Nude Mice, MF-1 strain", "procedure": "Since the potency of HPβCD against breast cancer was established in our in vitro assays, a thorough investigation in a mice model was conducted (Nude Mice. MF-1 strain). MCF-7 and MDA-MB-231 cells were injected in 32 mice (16 for each cell type) and after tumour development, was treated with HPβCD (3000 mg/kg b.w.). Thrice a week dose treatment plan was followed throughout the study.\nTo examine if HPβCD can be used as a future anti-breast cancer drug, mice xenografts were prepared. MCF7 cells (5 million) cells were injected in 16 mice with weekly β-estradiol supplementation. The study for triple negative induced breast cancer (MDA-MB-231) is complete. Up to 4 million cells were injected in 16 mice. This was subdivided in three more groups namely: Late stage, intermediate stage and early stage estrogen negative cancer. 4 mice were grouped as untreated (not receiving HPβCD), 4 for treated (late stage), 3 for treated (intermediate stage) and 3 for treated (early stage).\nThe anticancer effect of HPβCD on estrogen positive MCF7 cells induced tumours in xenograft mice model was also tested. The study was not completed as only 4 out of 16 mice developed tumours. But the mice who developed tumour were treated with HPβCD and 9.6% tumour reduction was observed (FIGS. 49 and 50)."}, "MDA-MB-231 cells [9]": {"test_system": "MDA-MB-231 cells", "assay": "Filipin cholesterol staining", "assay_type": "cell-based, human", "procedure": "To further validate cholesterol depletion as observed from the cholesterol assay above a Filipin based cholesterol staining was conducted. MCF7. MDA-MB-231 cells were used. HEK-293 cells could not be used due to unavailability. HPβCD and the positive (5 mM MBCD) were treated for 24 hrs. Like PL, MBCD is also a well know cholesterol depletor.\nFluorescence microscopy has been a robust tool for investigating the intracellular transport of proteins. Filipin specifically binds to cholesterol and can give an overall quantification and has been more recently been clinically used in the diagnosis of Type C Niemann-Pick disease."}, "MDA-MB-231 cells [10]": {"test_system": "MDA-MB-231 cells", "assay": "ROS assay", "assay_type": "cell-based, human", "procedure": "(§3) To further validate the occurrence of apoptosis and to investigate the exact mechanisms if apoptosis, a ROS assay was conducted to capture the production of ROS. […] In order to be in solidarity with this fact, a ROS assay was performed in three cell lines: MCF7, MDA-MB-231 & MRC-5. Like before, HPβCD and the positive (10 mM H2O2) were treated for 24 hrs. The right hand section in each plot represents the production of ROS."}, "MCF7 cells [11]": {"test_system": "MCF7 cells", "assay": "ROS assay", "assay_type": "cell-based, human", "procedure": "as §3"}, "MRC-5 cells [12]": {"test_system": "MRC-5 cells", "assay": "ROS assay", "assay_type": "cell-based, human", "procedure": "as §3"}, "MDA-MB-231 cells [13]": {"test_system": "MDA-MB-231 cells", "assay": "MTT growth inhibition assay", "assay_type": "cell-based, human", "procedure": "(§4) Cells were cultured in appropriate medium supplemented with 10% FCS, penicillin (100 U/ml), and streptomycin (100 μg/ml) (Gibco) at 5% CO2 in a 37° C. incubator.\n(§5) Four different cell lines were used MCF7 (ER+). MDA-MB-231 (ER−), MRC-5 (Lung Fibroblasts) and HEK-293 (Embryonic kidney). MRC-5 and/or HEK-293 were used as control cell lines depending on availability.\n(§6) In order to determine whether HPβCD has the ability to induce cancer cell death a primary screening using an MTT assay was performed. Three different time points 24 hrs."}, "MCF7 cells [14]": {"test_system": "MCF7 cells", "assay": "MTT growth inhibition assay", "assay_type": "cell-based, human", "procedure": "as §4, §5, §6"}}, "data": [{"substance": "2-hydroxypropyl-β-cyclodextrin [HPβCD]", "values": [{"measurement": "cell death (apoptosis)", "setting": "HEK-293 cells [1]; HEK-293, 20 mM HPβCD", "value": "~15", "unit": "%"}, {"measurement": "cell death (apoptosis)", "setting": "HEK-293 cells [1]; HEK-293, 50 mM HPβCD", "value": "~18", "unit": "%"}, {"measurement": "cell death (apoptosis)", "setting": "HEK-293 cells [1]; HEK-293, till 10 mM HPβCD", "value": "almost zero percentage cell death"}, {"measurement": "cell death (apoptosis)", "setting": "MDA-MB-231 cells [2]; MDA-MB-231, 10 mM HPβCD", "value": "around 40%"}, {"measurement": "maximum cell death (apoptosis)", "setting": "MDA-MB-231 cells [2]; MDA-MB-231, 50 mM HPβCD", "value": "~70", "unit": "%"}, {"measurement": "cell death (apoptosis)", "setting": "MCF7 cells [3]", "value": "around 45%"}, {"measurement": "cell death (apoptosis)", "setting": "MRC-5 cells [4]; MRC-5, 20 mM HPβCD", "value": "~15", "unit": "%"}, {"measurement": "cell death (apoptosis)", "setting": "MRC-5 cells [4]; MRC-5, 50 mM HPβCD", "value": "~18", "unit": "%"}, {"measurement": "cell death (apoptosis)", "setting": "MRC-5 cells [4]; MRC-5, till 10 mM HPβCD", "value": "almost zero percentage cell death"}, {"measurement": "Total Live (caspase 3/7)", "setting": "HEK-293 cells [5]", "value": 66.75, "unit": "%"}, {"measurement": "Total Apoptotic (caspase 3/7)", "setting": "MDA-MB-231 cells [6]", "value": 48.75, "unit": "%"}, {"measurement": "total apoptosis compared to untreated", "setting": "MCF7 cells [7]", "value": "almost two times more"}, {"measurement": "Total Apoptotic (caspase 3/7)", "setting": "MCF7 cells [7]; 24 hrs", "value": 12.5, "unit": "%"}, {"measurement": "average tumour size", "setting": "MCF7 cells [8]; ER+ MCF7 mice, treated for 5 weeks", "value": 5.3, "unit": "mm^3"}, {"measurement": "tumour outcome", "setting": "MCF7 cells [8]; Mouse No. 29, 30 and 32, treated for 5 weeks", "value": "healed completely"}, {"measurement": "tumour size", "setting": "MCF7 cells [8]; Mouse No. 31, treated for 5 weeks", "value": 21.28, "unit": "mm^3"}, {"measurement": "Filipin fluorescence compared to untreated", "setting": "MDA-MB-231 cells [9]; MDA-MB-231, 10 mM HPβCD, 24 hrs, ImageJ", "value": "six times less fluorescence"}, {"measurement": "cholesterol (Filipin staining) in treated vs untreated cells", "setting": "MDA-MB-231 cells [9]; MDA-MB-231, FIG. 46", "value": "decreased cholesterol"}, {"measurement": "ROS production compared to untreated", "setting": "MDA-MB-231 cells [10]; MDA-MB-231, 10 mM HPβCD", "value": "about 4 fold"}, {"measurement": "ROS generation", "setting": "MDA-MB-231 cells [10]; MDA-MB-231, 10 mM, 24 hrs", "value": 13.7, "unit": "%"}, {"measurement": "ROS production compared to untreated", "setting": "MCF7 cells [11]; MCF7, 10 mM HPβCD", "value": "about 2.5 fold"}, {"measurement": "ROS generation", "setting": "MCF7 cells [11]; MCF7, 10 mM, 24 hrs", "value": 17.9, "unit": "%"}, {"measurement": "ROS production compared to untreated", "setting": "MRC-5 cells [12]; MRC-5, 10 mM HPβCD", "value": "~4", "unit": "folds"}, {"measurement": "ROS generation", "setting": "MRC-5 cells [12]; MRC-5, 10 mM, 24 hrs", "value": 10.8, "unit": "%"}, {"measurement": "growth inhibition", "setting": "MDA-MB-231 cells [13]; MDA-MB-231, 10 mM HPβCD, all three time points", "value": "~45", "unit": "%"}, {"measurement": "IC50", "setting": "MDA-MB-231 cells [13]; MDA-MB-231, 24 hrs", "value": 12.3, "unit": "mM"}, {"measurement": "IC50", "setting": "MDA-MB-231 cells [13]; MDA-MB-231, 48 hrs", "value": 11.2, "unit": "mM"}, {"measurement": "IC50", "setting": "MDA-MB-231 cells [13]; MDA-MB-231, 72 hrs", "value": 8.56, "unit": "mM"}, {"measurement": "growth inhibition", "setting": "MCF7 cells [14]; MCF7, 10 mM HPβCD, all three time points (24, 48, 72 hrs)", "value": "~45", "unit": "%"}, {"measurement": "IC50", "setting": "MCF7 cells [14]; MCF7, 24 hrs", "value": 11.1, "unit": "mM"}, {"measurement": "IC50", "setting": "MCF7 cells [14]; MCF7, 48 hrs", "value": 9.82, "unit": "mM"}, {"measurement": "IC50", "setting": "MCF7 cells [14]; MCF7, 72 hrs", "value": 7.45, "unit": "mM"}]}]}
